Source: ChEMBL document CHEMBL1156506, “Changes to the HIV long terminal repeat and to HIV integrase differentially impact HIV integrase assembly, activity, and the binding of strand transfer inhibitors” (J Biol Chem, 2007)

Tested on: Human immunodeficiency virus type 1 integrase (Human immunodeficiency virus 1), Q7ZJM1 [N155H]
Experiment: Inhibition of HIV recombinant integrase N155H mutant assessed as strand transfer activity using U5 dTCA LTR by scintillation proximity assay relative to wild type LTR
Design: scale not given: the % may be the effect or the level left
Settings: tested as the 3H-labelled form

Cn1c(N2CCCCS2(=O)=O)nc(C(=O)NCc2ccc(F)cc2)c(O)c1=O [BMS-707035]
Activity: 2%
